Data on 4 compounds can be found in patent publication US7455859B2, “Highly concentrated bromine compositions and methods of preparation” (Enviro Tech Chemical Services, Inc., priority 2003, dated 2008).

One series deals with Pseudomonas aeruginosa. The series can be described thus: Biocidal performance, plate counting of viable bacteria (Example 20). The series is classed as cell-based. The conditions noted are these: nominal 0.2 ppm total halogen as Cl2, phosphate buffer pH 8.5, 10 minutes at 35° C. From the text: The biocidal performance of the liquid composition of the present invention was compared to a solution of sodium bromide activated using an equimolar amount of sodium hypochlorite bleach, and a solution prepared from 1-bromo-3-chloro-5,5-dimethylhydantoin (BCDMH). Sterile phosphate buffer samples (pH 8.5) were inoculated with Pseudomonas aeruginosa to give a concentration of approximately 5×10^6 bacteria/ml and then challenged with the test systems at a nominal concentration of 0.2 ppm total halogen (as Cl2).
After a contact time of 10 minutes at 35° C., an aliquot of sodium thiosulfate was added to each sample to neutralize the halogen. The level of viable bacteria in each sample was determined by plate counting. Plates were incubated at 35° C. for 48 hours.

For series [1] the following is noted: cited from earlier work.
Series [2] can be described thus: Dissolution of crystalline bromine-containing solid in water. The series is classed as physicochemical. The conditions noted are these: crystalline solid dissolved in water. From the text: The resulting slurry was stirred as solid sodium hydroxide pellets were charged to the reaction flask. […] As the reaction proceeded, a fine powdery precipitate developed which was removed by vacuum filtration. […] Iodometric titration of the resulting golden yellow solution was used to determine its Br2 content of 27.2% (or 12.1% as Cl2). Within a few minutes, this highly concentrated bromine solution started to turn turbid as crystals began to form. The crystallizing solution was chilled in an ice bath to expedite the development of the crystals. A large crop of yellow crystalline material was separated by vacuum filtration, and the mother liquors were retitrated iodometrically. […] There were no insoluble residues. Iodometric titration of resulting solutions was used to calculate that the crystalline solid contained 29.9% Br2 (13.1% as Cl2).
To a stirred reaction flask containing 40% sodium bromide solution was added solid sulfamic acid (82.3 g). The resultant slurry was stirred as 50% sodium hydroxide (60.2 g) was introduced. […] However, the reaction medium became very viscous, and this hampered the mixing efficiency, so deionized water (35.8 g) was added to thin the mixture. The fine powdery precipitate that developed was removed by vacuum filtration. […] The mother liquors were determined to have a bromine content of 20.9% as Br2 (9.3% as Cl2) by iodometric titration. […]

Series [3] can be described thus: Heating of crystals in ceramic crucible on hot plate (Example 23). The conditions noted are these: towel-dried crystals heated on a hot plate. The format is physicochemical. An excerpt:
Another large portion of the crystalline mass was dried with a paper towel and placed in a ceramic crucible that was heated on a hot plate.

Series [4] can be described thus: Storage stability of anhydrous N-bromosulfamate sodium salt in vacuum dessicator (Example 24). The series is classed as physicochemical. The conditions noted are these: three months of storage at room temperature in vacuum dessicator. As for the experimental part:
A further portion of the towel dried crystals from Example 17 was dehydrated by placing in a vacuum dessicator containing molecular sieves. After 15 days, a loss of 31% of the original weight was determined. Although the crystals lost their glass-like appearance, the rhomobohedral shape was retained.
The sodium salt of anhydrous N-bromosulfamate was placed back in the vacuum dessicator.

“Also recorded” adds a separate entry of the source.

Regarding `CC1(C)C(=O)N(Cl)C(=O)N1Br` [BCDMH, 1-bromo-3-chloro-5,5-dimethylhydantoin], the “Log Reduction in viable bacteria/ml” value in the series with Pseudomonas aeruginosa amounted to 3.3 Log. In addition, the “Viable bacteria/ml after 10 minutes” value in the series with Pseudomonas aeruginosa (inoculum approx. 5×10^6 bacteria/ml) is reported as 2.5 × 10^3 bacteria/ml. Also, in series [1] (at 20° C.), the Water solubility is 0.1%.

Regarding `O=S(=O)([O-])NBr.[Na+]` [Example 17, sodium salt of hydrated N-bromosulfamate], the Dissolution in water result in series [2] was “dissolved rapidly and completely; also recorded: dissolved quickly and completely”. Besides, the “Temperature at which water of crystallization boiled off and product decomposed, evolving bromine vapors” value in series [3] was “about 221 ° F”.

As for `O=S(=O)([O-])NBr.[Na+]` [sodium salt of anhydrous N-bromosulfamate], the “Loss of activity on storage” value in series [4] is “not to have lost any activity”.

Take `O=c1n(Cl)c(=O)n(Cl)c(=O)n1Cl` [trichloroisocyanuric acid]: in series [1] (at 25° C.), the “Saturated solution in water” value is given as 1.1 % as Cl2.
